# Laboratory results taken from patent US20230270713A1, “Administration of Resiniferatoxin For Treatment of Bladder Pain or Bladder Cancer” (Sorrento Therapeutics, Inc., priority 2020, published 2023).
# Several values for one entry are separate records, joined by “and”; a condition that tells them apart may be missing. Equal entries are not always repeated. Where two headings read alike, the source gives them in different places.
# Test: Pharmacokinetic/toxicokinetic profile of RTX after intravesical instillation in dogs
# Format: in vivo, dog
# Procedure: Local tolerance and the pharmacokinetic (PK), and toxicokinetic (TK) profile of RTX in dogs was determined after a single instillation of RTX into the bladder of dogs (n=6). The RTX formulations were prepared using aseptic techniques in a biological safety cabinet (BSC) by mixing the appropriate amount of diluent with the appropriate amount of RTX. Dosing formulation concentrations used were 1 and 10 mcg/mL.
# Three male and three female dogs ranging in weight from 5.95 to 8.60 kg were used in the study. The dogs were assigned into Group 1 (receiving a dose of 1 mcg/mL RTX) or Group 2 (receiving a dose of 10 mcg/mL RTX) as shown in the Table 3 below.
# RTX was administered via intravesical instillation into the urinary bladder. The animals were given a single dose of 25 or 250 mcg/dose in a total volume of 25 mL on Day 1 over a period of 1 hour (±5 minutes). RTX and diluent were administered to the dogs under general anesthesia via a Foley catheter placed into the bladder for 1 hour (±5 minutes).
# Blood samples were collected from all animals on Day 1 pre-dose and at 0.5, 1, 2, 4, 6, 12, 24, 36, 48, 60, and 72 hours post-dose. The toxicokinetic (TK) parameters were determined for RTX, and if appropriate, the metabolites, from mean concentration-time data.
# Cmax is the observed maximum plasma concentration from the start of dosing. Tmax is the time to reach the Cmax. AUC(0-T) is the area under the plasma concentration-time curve from time zero to the last measurable time point calculated by the linear trapezoidal rule.
# [1] = female dogs 1004, 1006 individual, 250 mcg intravesical
# [2] = female dogs, 250 mcg intravesical
compound,measurement,setting,value
"C=C(C)[C@]12C[C@@H](C)[C@@]34O[C@](Cc5ccccc5)(O[C@@H]1[C@@H]3C=C(COC(=O)Cc1ccc(O)c(OC)c1)C[C@]1(O)C(=O)C(C)=C[C@@H]41)O2 [RTX, resiniferatoxin]",concentration at 2 h,"both sexes, dog, plasma, other: intravesical instillation, 25 mcg, Group 1 dogs, 25 mL at 1 mcg/mL (25 mcg/dose), 2 hours post-dosing, male and female dog, read-out: plasma concentrations for RTX",< 0.05 ng/mL
same,AUC(0-T) Ratio (Male/Female),"dogs, 250 mcg intravesical",1.23
same,Cmax Ratio (Male/Female),"dogs, 250 mcg intravesical",1.28
same,RTX exposure in males compared with females,"dogs, 250 mcg intravesical",similar
same,Plasma concentration of RTX,"female dog 1002, 25 mcg intravesical, 2 h",BQL (*BQL—Below quantifiable limit (<50.0 pg/mL); adequate signal-to-noise enabled reporting value as estimate)
same,Plasma concentration of RTX,"female dog 1002, 25 mcg intravesical, 4 h",BQL (*BQL—Below quantifiable limit (<50.0 pg/mL); adequate signal-to-noise enabled reporting value as estimate)
same,Plasma concentration of RTX,"female dog 1002, 25 mcg intravesical, 6 h",BQL (*BQL—Below quantifiable limit (<50.0 pg/mL); adequate signal-to-noise enabled reporting value as estimate)
same,Plasma concentration of RTX,"female dog 1002, 25 mcg intravesical, 12 h",BQL (*BQL—Below quantifiable limit (<50.0 pg/mL); adequate signal-to-noise enabled reporting value as estimate)
same,Plasma concentration of RTX,"female dog 1002, 25 mcg intravesical, 24 h",BQL (*BQL—Below quantifiable limit (<50.0 pg/mL); adequate signal-to-noise enabled reporting value as estimate)
same,Plasma concentration of RTX,"female dog 1002, 25 mcg intravesical, 36 h",BQL (*BQL—Below quantifiable limit (<50.0 pg/mL); adequate signal-to-noise enabled reporting value as estimate)
same,Plasma concentration of RTX,"female dog 1002, 25 mcg intravesical, 48 h",BQL (*BQL—Below quantifiable limit (<50.0 pg/mL); adequate signal-to-noise enabled reporting value as estimate)
same,Plasma concentration of RTX,"female dog 1002, 25 mcg intravesical, 60 h",BQL (*BQL—Below quantifiable limit (<50.0 pg/mL); adequate signal-to-noise enabled reporting value as estimate)
same,Plasma concentration of RTX,"female dog 1002, 25 mcg intravesical, 72 h",BQL (*BQL—Below quantifiable limit (<50.0 pg/mL); adequate signal-to-noise enabled reporting value as estimate)
same,Plasma concentration of RTX,"female dog 1002, 25 mcg intravesical, Predose",BQL (*BQL—Below quantifiable limit (<50.0 pg/mL); adequate signal-to-noise enabled reporting value as estimate)
same,AUC(0-T),[1],0.441 ng·h/mL and 0.146 ng·h/mL
same,AUC(0-T)/Dose,[1],1.76 pg·h/mL/µg and 0.584 pg·h/mL/µg
same,Cmax,[1],0.388 ng/mL and 0.16 ng/mL
same,Cmax/Dose,[1],1.55 pg/mL/µg and 0.640 pg/mL/µg
same,Plasma concentration of RTX,"female dogs 1004, 1006 individual, 250 mcg intravesical, 0.5 h",0.388 ng/mL and 0 ng/mL
same,Plasma concentration of RTX,"female dogs 1004, 1006 individual, 250 mcg intravesical, 1 h",0.16 ng/mL
same,Plasma concentration of RTX,"female dogs 1004, 1006 individual, 250 mcg intravesical, 2 h",0.0511 ng/mL
same,Plasma concentration of RTX,"female dogs 1004, 1006 individual, 250 mcg intravesical, 4 h",0 ng/mL
same,Plasma concentration of RTX,"female dogs 1004, 1006 individual, 250 mcg intravesical, 6 h",0 ng/mL
same,Plasma concentration of RTX,"female dogs 1004, 1006 individual, 250 mcg intravesical, 12 h",0 ng/mL
same,Plasma concentration of RTX,"female dogs 1004, 1006 individual, 250 mcg intravesical, 24 h",0 ng/mL
same,Plasma concentration of RTX,"female dogs 1004, 1006 individual, 250 mcg intravesical, 36 h",0 ng/mL
same,Plasma concentration of RTX,"female dogs 1004, 1006 individual, 250 mcg intravesical, 48 h",0 ng/mL
same,Plasma concentration of RTX,"female dogs 1004, 1006 individual, 250 mcg intravesical, 60 h",0 ng/mL
same,Plasma concentration of RTX,"female dogs 1004, 1006 individual, 250 mcg intravesical, 72 h",0 ng/mL
same,Plasma concentration of RTX,"female dogs 1004, 1006 individual, 250 mcg intravesical, Predose",0 ng/mL
same,"AUC(0-T)/Dose, Mean",[2],1.18 pg·h/mL/µg
same,"Cmax/Dose, Mean",[2],1.10 pg/mL/µg
same,"Plasma concentration of RTX, Mean","female dogs, 250 mcg intravesical, Predose",0 ng/mL
same,Tmax,"female, dog, plasma, 250 ug, female dogs 1004, 1006 individual, 250 mcg intravesical, read-out: Tmax",30 min
same,Tmax,"female, dog, plasma, 250 ug, female dogs, 250 mcg intravesical, read-out: Tmax, Mean",45 ± 21.2 min
same,concentration at 60 h,"female, dog, plasma, other: intravesical instillation into the urinary bladder, 250 mcg, female dogs 1004, 1006 individual, 250 mcg intravesical, 60 h, read-out: Plasma concentration of RTX",0 ng/mL
same,concentration at 72 h,"female, dog, plasma, other: intravesical instillation into the urinary bladder, 250 mcg, female dogs 1004, 1006 individual, 250 mcg intravesical, 72 h, read-out: Plasma concentration of RTX",0 ng/mL
same,concentration at 0.5 h,"female, dog, plasma, other: intravesical instillation into the urinary bladder, 250 mcg, female dogs, 250 mcg intravesical, 0.5 h, read-out: Plasma concentration of RTX, Mean",0.194 ng/mL
same,concentration at 60 h,"female, dog, plasma, other: intravesical instillation into the urinary bladder, 250 mcg, female dogs, 250 mcg intravesical, 60 h, read-out: Plasma concentration of RTX, Mean",0 ng/mL
same,concentration at 72 h,"female, dog, plasma, other: intravesical instillation into the urinary bladder, 250 mcg, female dogs, 250 mcg intravesical, 72 h, read-out: Plasma concentration of RTX, Mean",0 ng/mL
same,AUC(0-t),"female, dog, plasma, other: intravesical instillation, 250 ug, female dogs, 250 mcg intravesical, read-out: AUC(0-T), Mean",0.294 ± 0.209 ng·h/mL
same,Cmax,"female, dog, plasma, other: intravesical instillation, 250 ug, female dogs, 250 mcg intravesical, read-out: Cmax, Mean",0.274 ± 0.161 ng/mL
same,Tmax,"female, dog, plasma, other: intravesical instillation, 250 ug, female dogs, 250 mcg intravesical, read-out: Tmax, Mean",45 min
same,concentration at 0.5 h,"female, dog, plasma, other: intravesical instillation, 25 mcg, female dog 1002, 25 mcg intravesical, 0.5 h, read-out: Plasma concentration of RTX",0.0392 ng/mL
same,concentration at 1 h,"female, dog, plasma, other: intravesical instillation, 25 mcg, female dog 1002, 25 mcg intravesical, 1 h, read-out: Plasma concentration of RTX",0.0203 ng/mL
same,concentration at 1 h,"female, dog, plasma, other: intravesical instillation, 250 mcg, female dogs 1004, 1006 individual, 250 mcg intravesical, 1 h, read-out: Plasma concentration of RTX",0.289 ng/mL
same,concentration at 2 h,"female, dog, plasma, other: intravesical instillation, 250 mcg, female dogs 1004, 1006 individual, 250 mcg intravesical, 2 h, read-out: Plasma concentration of RTX",0.0602 ng/mL
same,concentration at 4 h,"female, dog, plasma, other: intravesical instillation, 250 mcg, female dogs 1004, 1006 individual, 250 mcg intravesical, 4 h, read-out: Plasma concentration of RTX",0 ng/mL
same,concentration at 6 h,"female, dog, plasma, other: intravesical instillation, 250 mcg, female dogs 1004, 1006 individual, 250 mcg intravesical, 6 h, read-out: Plasma concentration of RTX",0 ng/mL
same,concentration at 12 h,"female, dog, plasma, other: intravesical instillation, 250 mcg, female dogs 1004, 1006 individual, 250 mcg intravesical, 12 h, read-out: Plasma concentration of RTX",0 ng/mL
same,concentration at 24 h,"female, dog, plasma, other: intravesical instillation, 250 mcg, female dogs 1004, 1006 individual, 250 mcg intravesical, 24 h, read-out: Plasma concentration of RTX",0 ng/mL
same,concentration at 36 h,"female, dog, plasma, other: intravesical instillation, 250 mcg, female dogs 1004, 1006 individual, 250 mcg intravesical, 36 h, read-out: Plasma concentration of RTX",0 ng/mL
same,concentration at 48 h,"female, dog, plasma, other: intravesical instillation, 250 mcg, female dogs 1004, 1006 individual, 250 mcg intravesical, 48 h, read-out: Plasma concentration of RTX",0 ng/mL
same,concentration at 1 h,"female, dog, plasma, other: intravesical instillation, 250 mcg, female dogs, 250 mcg intravesical, 1 h, read-out: Plasma concentration of RTX, Mean",0.225 ng/mL
same,concentration at 2 h,"female, dog, plasma, other: intravesical instillation, 250 mcg, female dogs, 250 mcg intravesical, 2 h, read-out: Plasma concentration of RTX, Mean",0.0557 ng/mL
same,concentration at 4 h,"female, dog, plasma, other: intravesical instillation, 250 mcg, female dogs, 250 mcg intravesical, 4 h, read-out: Plasma concentration of RTX, Mean",0 ng/mL
same,concentration at 6 h,"female, dog, plasma, other: intravesical instillation, 250 mcg, female dogs, 250 mcg intravesical, 6 h, read-out: Plasma concentration of RTX, Mean",0 ng/mL
same,concentration at 12 h,"female, dog, plasma, other: intravesical instillation, 250 mcg, female dogs, 250 mcg intravesical, 12 h, read-out: Plasma concentration of RTX, Mean",0 ng/mL
same,concentration at 24 h,"female, dog, plasma, other: intravesical instillation, 250 mcg, female dogs, 250 mcg intravesical, 24 h, read-out: Plasma concentration of RTX, Mean",0 ng/mL
same,concentration at 36 h,"female, dog, plasma, other: intravesical instillation, 250 mcg, female dogs, 250 mcg intravesical, 36 h, read-out: Plasma concentration of RTX, Mean",0 ng/mL
same,concentration at 48 h,"female, dog, plasma, other: intravesical instillation, 250 mcg, female dogs, 250 mcg intravesical, 48 h, read-out: Plasma concentration of RTX, Mean",0 ng/mL
